US7205123B2, “Recombinant materials for carotenoid production” (DSM IP Assets B.V., priority 1995, dated 2007)

Columns and labels:
Phaffia (CBS6938) = experiment: Survival of untransformed Phaffia on YepD agar with increasing G418; type: cell-based, Phaffia rhodozyma; details: Dil. 0 (OD600 = 5)
[1] = tested on: Phaffia transformant G418-1; experiment: Survival of Phaffia transformant G418-1 on YepD agar with increasing G418; type: cell-based, Phaffia rhodozyma
Procedure: To determine the expression of the G418 resistance gene in pGB-Ph9, transformant G418-1 (EP 0 590 707 A1) was exposed to increasing concentrations of G418.
Two dilutions of a G418-1 culture were plated onto YepD agar containing 0–1000 μg/ml G418 (Table 1).

## CN[C@@H]1[C@@H](O)[C@@H](O[C@@H]2[C@@H](O)[C@H](O[C@H]3O[C@H]([C@@H](C)O)[C@@H](O)[C@H](O)[C@H]3N)[C@@H](N)C[C@H]2N)OC[C@]1(C)O [G418]
Phaffia (CBS6938); G418 200 μg/ml
  Survival on YepD agar medium: 0
Phaffia (CBS6938); G418 300 μg/ml
  Survival on YepD agar medium: 0
Phaffia (CBS6938); G418 400 μg/ml
  Survival on YepD agar medium: 0
Phaffia (CBS6938); G418 500 μg/ml
  Survival on YepD agar medium: 0
Phaffia (CBS6938); G418 600 μg/ml
  Survival on YepD agar medium: 0
Phaffia (CBS6938); G418 700 μg/ml
  Survival on YepD agar medium: 0
Phaffia (CBS6938); G418 800 μg/ml
  Survival on YepD agar medium: 0
Phaffia (CBS6938); G418 900 μg/ml
  Survival on YepD agar medium: 0
Phaffia (CBS6938); G418 1000 μg/ml
  Survival on YepD agar medium: 0
[1]; G418 200 μg/ml, Dil. 10^-4 (OD600 = 7)
  Survival on YepD agar medium: >300
[1]; G418 200 μg/ml, Dil. 10^-5 (OD600 = 7)
  Survival on YepD agar medium: 70
[1]; G418 300 μg/ml, Dil. 10^-4 (OD600 = 7)
  Survival on YepD agar medium: >300
[1]; G418 300 μg/ml, Dil. 10^-5 (OD600 = 7)
  Survival on YepD agar medium: 61
[1]; G418 400 μg/ml, Dil. 10^-4 (OD600 = 7)
  Survival on YepD agar medium: 212
[1]; G418 400 μg/ml, Dil. 10^-5 (OD600 = 7)
  Survival on YepD agar medium: 13
[1]; G418 500 μg/ml, Dil. 10^-4 (OD600 = 7)
  Survival on YepD agar medium: 10
[1]; G418 500 μg/ml, Dil. 10^-5 (OD600 = 7)
  Survival on YepD agar medium: 2
[1]; G418 600 μg/ml
  plated cells survived: less than 1%
[1]; G418 600 μg/ml, Dil. 10^-4 (OD600 = 7)
  Survival on YepD agar medium: 0
[1]; G418 600 μg/ml, Dil. 10^-5 (OD600 = 7)
  Survival on YepD agar medium: 0
[1]; G418 700 μg/ml, Dil. 10^-4 (OD600 = 7)
  Survival on YepD agar medium: 0
[1]; G418 700 μg/ml, Dil. 10^-5 (OD600 = 7)
  Survival on YepD agar medium: 0
[1]; G418 800 μg/ml, Dil. 10^-4 (OD600 = 7)
  Survival on YepD agar medium: 0
[1]; G418 800 μg/ml, Dil. 10^-5 (OD600 = 7)
  Survival on YepD agar medium: 0
[1]; G418 900 μg/ml, Dil. 10^-4 (OD600 = 7)
  Survival on YepD agar medium: 0
[1]; G418 900 μg/ml, Dil. 10^-5 (OD600 = 7)
  Survival on YepD agar medium: 0
[1]; G418 1000 μg/ml, Dil. 10^-4 (OD600 = 7)
  Survival on YepD agar medium: 0
[1]; G418 1000 μg/ml, Dil. 10^-5 (OD600 = 7)
  Survival on YepD agar medium: 0
